# According to article PMC11792831, “Design and synthesis of doublecortin-like kinase 1 inhibitors and their bioactivity evaluation” (Journal of Enzyme Inhibition and Medicinal Chemistry, 2023):
# Columns and labels:
# [1] = biological target: T1, LRRK2 (Homo sapiens, UniProt Q5S007); experiment: In vitro LRRK2 kinase activity assay (Eurofins); format: biochemical; details: remaining kinase activity at 1 uM compound; 100% = no inhibition, 0% = complete inhibition
# T1 construct: purchased Eurofins (Belgium), contract assay service
# Procedure: All compounds were tested for their kinase inhibitory activity at the concentration of 1 μM. […] Compounds with high activity or good selectivity were selected for further IC50 determination (Table 2).
# (§1) Eurofins (Belgium) conducted in vitro DCLK1 and LRRK2 kinase activity assays. Compounds were sent as dry powders to Eurofins.
# [2] = biological target: T2, DCLK1 (Homo sapiens, UniProt O15075); experiment: In vitro DCLK1 kinase activity assay (Eurofins); format: biochemical; details: for Selectivity (DCLK1 activity/LRRK2 activity): ratio of remaining activities at 1 uM; for DCLK1 activity (%) / activity at 1 µM: remaining kinase activity at 1 uM compound, 100% = no inhibition, 0% = complete inhibition; for activity at 1 µM: read-out: DCLK1 activity (%)
# T2 construct: purchased Eurofins (Belgium), contract assay service
# T2 sequence (O15075 1-740): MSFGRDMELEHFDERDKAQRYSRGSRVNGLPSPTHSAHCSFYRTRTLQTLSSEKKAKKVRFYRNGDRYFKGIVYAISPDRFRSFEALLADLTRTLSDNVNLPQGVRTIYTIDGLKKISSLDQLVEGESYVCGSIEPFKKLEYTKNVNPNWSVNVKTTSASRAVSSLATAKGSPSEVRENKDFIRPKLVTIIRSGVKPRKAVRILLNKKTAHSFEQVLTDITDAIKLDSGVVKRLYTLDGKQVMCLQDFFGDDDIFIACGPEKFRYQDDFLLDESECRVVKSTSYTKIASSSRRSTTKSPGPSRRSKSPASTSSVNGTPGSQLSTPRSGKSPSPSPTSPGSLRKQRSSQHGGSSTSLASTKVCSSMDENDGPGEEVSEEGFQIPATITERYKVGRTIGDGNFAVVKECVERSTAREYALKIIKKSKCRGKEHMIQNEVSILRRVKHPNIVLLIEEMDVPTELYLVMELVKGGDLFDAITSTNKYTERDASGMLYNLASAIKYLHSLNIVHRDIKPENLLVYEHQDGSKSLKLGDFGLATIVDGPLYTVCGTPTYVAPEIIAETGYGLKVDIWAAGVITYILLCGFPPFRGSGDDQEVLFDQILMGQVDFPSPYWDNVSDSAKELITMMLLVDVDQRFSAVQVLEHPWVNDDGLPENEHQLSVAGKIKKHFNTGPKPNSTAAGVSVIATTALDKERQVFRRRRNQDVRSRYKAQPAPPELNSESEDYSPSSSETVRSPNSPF
# Excerpt: as §1
# T1 sequence (Q5S007 whole entry): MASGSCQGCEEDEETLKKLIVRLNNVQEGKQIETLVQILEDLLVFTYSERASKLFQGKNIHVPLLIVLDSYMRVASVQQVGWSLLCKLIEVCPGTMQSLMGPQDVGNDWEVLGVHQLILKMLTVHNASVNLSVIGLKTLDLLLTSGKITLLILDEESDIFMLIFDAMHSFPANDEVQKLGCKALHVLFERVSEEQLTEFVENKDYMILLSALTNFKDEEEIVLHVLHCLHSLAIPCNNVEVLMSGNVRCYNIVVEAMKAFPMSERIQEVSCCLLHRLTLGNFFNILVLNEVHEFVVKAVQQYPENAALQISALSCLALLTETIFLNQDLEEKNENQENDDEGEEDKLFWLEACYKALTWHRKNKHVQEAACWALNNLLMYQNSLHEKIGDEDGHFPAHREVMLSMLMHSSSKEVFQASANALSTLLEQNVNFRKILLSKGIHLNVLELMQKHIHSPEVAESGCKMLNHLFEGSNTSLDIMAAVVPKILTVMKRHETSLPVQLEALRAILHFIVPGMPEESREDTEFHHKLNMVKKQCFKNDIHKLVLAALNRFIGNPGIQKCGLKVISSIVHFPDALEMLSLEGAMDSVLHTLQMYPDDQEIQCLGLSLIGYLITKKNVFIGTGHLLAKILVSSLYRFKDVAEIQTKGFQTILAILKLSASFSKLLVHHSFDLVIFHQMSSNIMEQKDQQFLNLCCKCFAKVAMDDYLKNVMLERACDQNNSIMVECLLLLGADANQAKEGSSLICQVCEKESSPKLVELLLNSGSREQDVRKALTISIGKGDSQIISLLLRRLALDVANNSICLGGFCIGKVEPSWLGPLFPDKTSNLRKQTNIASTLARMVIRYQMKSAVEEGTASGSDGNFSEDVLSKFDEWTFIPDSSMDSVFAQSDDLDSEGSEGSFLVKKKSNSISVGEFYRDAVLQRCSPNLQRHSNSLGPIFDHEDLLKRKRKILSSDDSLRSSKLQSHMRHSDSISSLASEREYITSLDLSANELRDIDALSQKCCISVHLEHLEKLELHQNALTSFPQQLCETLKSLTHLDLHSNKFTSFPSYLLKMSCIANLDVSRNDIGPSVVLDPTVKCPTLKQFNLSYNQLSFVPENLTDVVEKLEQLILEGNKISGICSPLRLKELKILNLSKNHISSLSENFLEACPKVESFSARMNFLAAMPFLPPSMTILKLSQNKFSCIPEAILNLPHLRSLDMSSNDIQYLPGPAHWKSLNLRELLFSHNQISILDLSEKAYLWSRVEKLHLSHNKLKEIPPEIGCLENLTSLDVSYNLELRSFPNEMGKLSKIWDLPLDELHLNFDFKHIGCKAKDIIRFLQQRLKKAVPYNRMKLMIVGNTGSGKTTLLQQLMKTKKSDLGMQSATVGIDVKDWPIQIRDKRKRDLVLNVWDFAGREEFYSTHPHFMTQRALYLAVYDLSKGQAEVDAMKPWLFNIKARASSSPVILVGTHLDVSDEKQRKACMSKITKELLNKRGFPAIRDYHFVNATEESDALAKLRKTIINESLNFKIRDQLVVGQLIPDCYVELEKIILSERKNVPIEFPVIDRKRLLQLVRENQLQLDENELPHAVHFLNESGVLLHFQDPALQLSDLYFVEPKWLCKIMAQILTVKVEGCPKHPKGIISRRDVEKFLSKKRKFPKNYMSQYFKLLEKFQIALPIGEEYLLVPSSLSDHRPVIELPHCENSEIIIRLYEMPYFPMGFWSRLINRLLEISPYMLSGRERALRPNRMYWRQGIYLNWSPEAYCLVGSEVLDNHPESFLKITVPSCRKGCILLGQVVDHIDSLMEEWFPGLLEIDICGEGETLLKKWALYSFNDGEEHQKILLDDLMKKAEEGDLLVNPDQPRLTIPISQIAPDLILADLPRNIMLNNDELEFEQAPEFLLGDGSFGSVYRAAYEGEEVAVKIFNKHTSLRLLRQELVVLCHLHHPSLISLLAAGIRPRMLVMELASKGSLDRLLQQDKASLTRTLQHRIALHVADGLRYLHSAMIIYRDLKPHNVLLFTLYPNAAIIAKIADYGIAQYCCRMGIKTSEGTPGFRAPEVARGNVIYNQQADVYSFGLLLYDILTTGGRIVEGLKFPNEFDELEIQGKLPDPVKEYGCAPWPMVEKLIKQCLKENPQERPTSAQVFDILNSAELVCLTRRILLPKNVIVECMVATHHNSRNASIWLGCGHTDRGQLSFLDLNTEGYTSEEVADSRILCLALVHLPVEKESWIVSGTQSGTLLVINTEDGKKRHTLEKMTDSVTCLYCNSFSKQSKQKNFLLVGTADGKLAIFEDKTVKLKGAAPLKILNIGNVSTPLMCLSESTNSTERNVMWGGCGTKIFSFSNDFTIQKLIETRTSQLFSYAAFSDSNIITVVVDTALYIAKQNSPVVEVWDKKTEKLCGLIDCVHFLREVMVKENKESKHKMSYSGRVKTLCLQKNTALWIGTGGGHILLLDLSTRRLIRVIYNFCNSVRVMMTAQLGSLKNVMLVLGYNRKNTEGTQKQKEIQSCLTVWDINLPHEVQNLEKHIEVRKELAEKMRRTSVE
Compound,LRRK2 activity (%) [1],Selectivity (DCLK1 activity/LRRK2 activity) [2],DCLK1 activity (%) [2],melting point,activity at 1 µM [1],activity at 1 µM [2]
"CCOc1cc(N2CCC(O)CC2)ccc1Nc1ncc2c(n1)N(C)c1c(Cl)cccc1C(=O)N2C [Compound A1, 10-Chloro-2-((2-ethoxy-4-(4-hydroxypiperidin-1-yl)phenyl)amino)-5,11-dimethyl-5,11-dihydro-6H-benzo[e]pyrimido[5,4-b][1,4]diazepin-6-one]",–,3.13,–,130 to 131 °C,8%,25%
"CCOc1cc(N2CCC(O)CC2)ccc1Nc1ncc2c(n1)N(C)c1c(C)cccc1C(=O)N2C [Compound A2, 2-((2-Ethoxy-4-(4-hydroxypiperidin-1-yl)phenyl)amino)-5,10,11-trimethyl-5,11-dihydro-6H-benzo[e]pyrimido[5,4-b][1,4]diazepin-6-one]",–,1.03,–,177 to 178 °C,100%,103%
"CCOc1cc(N2CCC(O)CC2)ccc1Nc1ncc2c(n1)N(C)c1cc(Cl)ccc1C(=O)N2C [Compound A3, 9-Chloro-2-((2-ethoxy-4-(4-hydroxypiperidin-1-yl)phenyl)amino)-5,11-dimethyl-5,11-dihydro-6H-benzo[e]pyrimido[5,4-b][1,4]diazepin-6-one]",–,0.97,–,162 to 163 °C,88%,85%
"CCOc1cc(N2CCC(O)CC2)ccc1Nc1ncc2c(n1)N(C)c1cc(C)ccc1C(=O)N2C [Compound A4, 2-((2-Ethoxy-4-(4-hydroxypiperidin-1-yl)phenyl)amino)-5,9,11-trimethyl-5,11-dihydro-6H-benzo[e]pyrimido[5,4-b][1,4]diazepin-6-one]",–,1.07,–,171 to 172 °C,83%,89%
"CCOc1cc(N2CCC(O)CC2)ccc1Nc1ncc2c(n1)N(C)c1ccc(Cl)cc1C(=O)N2C [Compound A5, 8-Chloro-2-((2-ethoxy-4-(4-hydroxypiperidin-1-yl)phenyl)amino)-5,11-dimethyl-5,11-dihydro-6H-benzo[e]pyrimido[5,4-b][1,4]diazepin-6-one]",–,0.98,–,173 to 174 °C,89%,87%
"CCOc1cc(N2CCC(O)CC2)ccc1Nc1ncc2c(n1)N(C)c1ccc(C(F)(F)F)cc1C(=O)N2C [Compound A7, 2-((2-Ethoxy-4-(4-hydroxypiperidin-1-yl)phenyl)amino)-5,11-dimethyl-8-(trifluoromethyl)-5,11-dihydro-6H-benzo[e]pyrimido[5,4-b][1,4]diazepin-6-one]",–,1.00,–,119 to 120 °C,109%,109%
"CCOc1cc(N2CCC(O)CC2)ccc1Nc1ncc2c(n1)N(C)c1ccc(C)cc1C(=O)N2C [Compound A8, 2-((2-Ethoxy-4-(4-hydroxypiperidin-1-yl)phenyl)amino)-5,8,11-trimethyl-5,11-dihydro-6H-benzo[e]pyrimido[5,4-b][1,4]diazepin-6-one]",–,1.10,–,170 to 171 °C,93%,102%
"CCOc1cc(N2CCC(O)CC2)ccc1Nc1ncc2c(n1)N(C)c1cccc(C)c1C(=O)N2C [Compound A10, 2-((2-Ethoxy-4-(4-hydroxypiperidin-1-yl)phenyl)amino)-5,7,11-trimethyl-5,11-dihydro-6H-benzo[e]pyrimido[5,4-b][1,4]diazepin-6-one]",–,0.98,–,184 to 185 °C,98%,96%

# Continued, values first:
LRRK2 activity (%) [1],Selectivity (DCLK1 activity/LRRK2 activity) [2],DCLK1 activity (%) [2],melting point,activity at 1 µM [1],activity at 1 µM [2],Compound
72%,0.82,59%,–,–,–,"2-((2-Ethoxy-4-(4-hydroxypiperidin-1-yl)phenyl)amino)-5-methyl-5,11-dihydro-6H-benzo[e]pyrimido[5,4-b][1,4]diazepin-6-one [Compound B2]"
76%,1.34,102%,–,–,–,"2-((2-Ethoxy-4-(4-hydroxypiperidin-1-yl)phenyl)amino)-11-methyl-5,11-dihydro-6H-benzo[e]pyrimido[5,4-b][1,4]diazepin-6-one [Compound B1]"
–,0.57,–,203 to 204 °C,99%,56%,"CN1C(=O)c2ccccc2N(C)c2nc(NC3CCC(N4CCC(O)CC4)CC3)ncc21 (centres unmarked) [Compound C1, 2-((4-(4-Hydroxypiperidin-1-yl)cyclohexyl)amino)-5,11-dimethyl-5,11-dihydro-6H-benzo[e]pyrimido[5,4-b][1,4]diazepin-6-one]"
–,2.14,–,189 to 190 °C,7%,15%,"CN1C(=O)c2ccccc2N(C)c2nc(Nc3ccc(N4CCC(O)CC4)nc3)ncc21 [Compound C2, 2-((6-(4-Hydroxypiperidin-1-yl)pyridin-3-yl)amino)-5,11-dimethyl-5,11-dihydro-6H-benzo[e]pyrimido[5,4-b][1,4]diazepin-6-one]"
–,0.51,–,178 to 179 °C,51%,26%,"CCOc1cc(N2CCC(C)(O)CC2)ccc1Nc1ncc2c(n1)N(C)c1ccccc1C(=O)N2CC [Compound D9, 2-((2-Ethoxy-4-(4-hydroxy-4-methylpiperidin-1-yl)phenyl)amino)-5-ethyl-11-methyl-5,11-dihydro-6H-benzo[e]pyrimido[5,4-b][1,4]diazepin-6-one]"
–,0.63,–,189 to 190 °C,81%,51%,"CCOc1cc(N2CCC(C)(F)CC2)ccc1Nc1ncc2c(n1)N(C)c1ccccc1C(=O)N2CC [Compound D10, 2-((2-Ethoxy-4-(4-fluoro-4-methylpiperidin-1-yl)phenyl)amino)-5-ethyl-11-methyl-5,11-dihydro-6H-benzo[e]pyrimido[5,4-b][1,4]diazepin-6-one]"
–,0.82,–,160 to 161 °C,72%,59%,"COc1cc(N2CCC(F)CC2)ccc1Nc1ncc2c(n1)N(C)c1ccccc1C(=O)N2C [Compound D13, 2-((4-(4-Fluoropiperidin-1-yl)-2-methoxyphenyl)amino)-5,11-dimethyl-5,11-dihydro-6H-benzo[e]pyrimido[5,4-b][1,4]diazepin-6-one]"
–,0.45,–,181 to 182 °C,33%,15%,"COc1cc(N2CCC(C)(C)CC2)ccc1Nc1ncc2c(n1)N(C)c1ccccc1C(=O)N2C [Compound D16, 2-((4-(4,4-Dimethylpiperidin-1-yl)-2-methoxyphenyl)amino)-5,11-dimethyl-5,11-dihydro-6H-benzo[e]pyrimido[5,4-b][1,4]diazepin-6-one]"
